# Values of other authors as cited in US20210361620A1 (Biosential, Inc., priority 2018, published 2021).
# Assays:
# [1] = tested on: subjects with mild insomnia or longer-than-average sleep latency; settings: for effect on sleep (hypnotic effect): ingestion of a sufficient quantity
# humans = settings: for potential side effects of supplementation: tryptophan: dose not given, melatonin: 1 mg to 5 mg, uncommon
# serum albumin = serum albumin (Homo sapiens, UniProt P02768); settings: after ingestion and absorption
# serum albumin, sequence (P02768 25-609): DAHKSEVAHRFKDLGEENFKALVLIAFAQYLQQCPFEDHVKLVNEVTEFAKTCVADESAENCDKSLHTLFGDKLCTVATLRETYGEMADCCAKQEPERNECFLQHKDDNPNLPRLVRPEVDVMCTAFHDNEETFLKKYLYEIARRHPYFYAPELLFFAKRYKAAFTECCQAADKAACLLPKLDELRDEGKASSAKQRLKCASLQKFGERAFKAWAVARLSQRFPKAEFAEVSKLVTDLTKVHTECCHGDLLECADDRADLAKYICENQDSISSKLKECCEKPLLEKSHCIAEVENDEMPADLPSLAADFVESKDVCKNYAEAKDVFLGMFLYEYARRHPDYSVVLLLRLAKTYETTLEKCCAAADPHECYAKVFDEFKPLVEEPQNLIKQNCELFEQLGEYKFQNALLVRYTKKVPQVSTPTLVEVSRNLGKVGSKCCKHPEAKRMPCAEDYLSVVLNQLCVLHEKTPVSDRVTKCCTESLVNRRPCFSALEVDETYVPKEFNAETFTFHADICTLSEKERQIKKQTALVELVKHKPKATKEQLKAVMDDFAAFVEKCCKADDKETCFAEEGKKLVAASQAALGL
Structure (SMILES),effect on sleep (hypnotic effect) [1],effect on glucose metabolism (rats),side effects of supplementation during the day (humans; daytime use),potential side effects of supplementation (humans),"effect on sleep architecture at very high dose ([1]; doses above 12,000 mg)",fraction bound to serum albumin in the circulation (serum albumin),fraction circulating as free tryptophan (serum albumin) [%]
COc1ccc2[nH]cc(CCNC(C)=O)c2c1 [melatonin],"reduce sleep latency, increase sleep duration and efficiency, and regulate the sleep-wake cycle",antihyperglycemic effect,sleepiness and hypothermia,"drowsiness, headache, dizziness and nausea",–,–,–
N[C@@H](Cc1c[nH]c2ccccc12)C(=O)O [tryptophan],consistently reduces sleep latency,–,–,drowsiness and minimal weight loss,disrupt sleep architecture,approximately 80%,20
